According to patent US4740233A, “Substituted 1,2,4-triazolo[1,5-a]-pyrimidine-2-sulfonamides and compositions and methods of controlling undesired vegetation and suppressing the nitrification of ammonium nitrogen in soil” (The Dow Chemical Company, priority 1986, dated 1988):

Experiments:
[1] = system: cotton; test: Preemergent control of plant species; assay type: in vivo, Gossypium spp.; details: Gossypium hirsutum, pre-emergence, 336 h; 0.25 lb/acre; read-out: percent preemergent control
Procedure, shortened: (§1)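 Preemergent application of aqueous emulsions at rates given in the table, uniformly over seeded greenhouse soil. Untreated (water) beds as comparison; rating after 2 weeks as reduction in growth.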

[2] = system: rape; test: Preemergent control of plant species; assay type: in vivo, Brassica napus; details: Brassica napus, pre-emergence, 336 h; 0.25 lb/acre; read-out: percent preemergent control
Procedure, shortened: as §1

[3] = system: soybean; test: Preemergent control of plant species; assay type: in vivo, Glycine max.; details: Glycine max, pre-emergence, 336 h; 0.25 lb/acre; read-out: percent preemergent control
Procedure, shortened: as §1

[4] = system: sugar beet; test: Preemergent control of plant species; assay type: in vivo, Beta saccharifera; details: Beta vulgaris, pre-emergence, 336 h; 0.25 lb/acre; read-out: percent preemergent control
Procedure, shortened: as §1

[5] = system: jimsonweed; test: Preemergent control of plant species; assay type: in vivo, Datura stramonium; details: Datura stramonium, pre-emergence, 336 h; 0.25 lb/acre; read-out: percent preemergent control
Procedure, shortened: as §1

[6] = system: annual morning glory; test: Preemergent control of plant species; assay type: in vivo, Ipomoea spp.; details: Ipomoea, pre-emergence, 336 h; 0.25 lb/acre; read-out: percent preemergent control
Procedure, shortened: as §1

[7] = system: pigweed; test: Preemergent control of plant species; assay type: in vivo, Amaranthus spp.; details: Amaranthus retroflexus, pre-emergence, 336 h; 0.25 lb/acre; read-out: percent preemergent control
Method: The seeds of various species of plants were planted in beds of good agricultural soil in a greenhouse. A number of compositions of the present invention, generally in the nature of an aqueous emulsion, were applied at rates listed in the table so as to deposit a predetermined amount of active ingredients uniformly throughout the surface of the bed. Another seed bed was treated only with water to serve as a control. After treatment the seed beds were maintained for two weeks under greenhouse conditions conducive for good plant growth and watered as necessary. Control refers to the reduction in growth compared to the observed results of the same untreated species.

[8] = system: velvetleaf; test: Preemergent control of plant species; assay type: in vivo, Abutilon theophrasti; details: Abutilon theophrasti, pre-emergence, 336 h; 0.25 lb/acre; read-out: percent preemergent control
Procedure, shortened: as §1

[9] = system: corn; test: Preemergent control of plant species; assay type: in vivo, Zea mays; details: Zea mays, pre-emergence, 336 h; 0.25 lb/acre; read-out: percent preemergent control
Procedure, shortened: as §1

[10] = system: rice; test: Preemergent control of plant species; assay type: in vivo, Oryza sativa; details: Oryza sativa, pre-emergence, 336 h; 0.25 lb/acre; read-out: percent preemergent control
Procedure, shortened: as §1

[11] = system: sorghum; test: Preemergent control of plant species; assay type: in vivo, Sorghum vulgare; details: Sorghum, pre-emergence, 336 h; 0.25 lb/acre; read-out: percent preemergent control
Procedure, shortened: as §1

[12] = system: wheat; test: Preemergent control of plant species; assay type: in vivo, Triticum aestivum; details: Triticum aestivum, pre-emergence, 336 h; 0.25 lb/acre; read-out: percent preemergent control
Procedure, shortened: as §1

[13] = system: barnyardgrass; test: Preemergent control of plant species; assay type: in vivo, Echinochloa crusgalli; details: Echinochloa crus-galli, pre-emergence, 336 h; 0.25 lb/acre; read-out: percent preemergent control
Procedure, shortened: as §1

[14] = system: crabgrass; test: Preemergent control of plant species; assay type: in vivo, Digitaria spp.; details: Digitaria sanguinalis, pre-emergence, 336 h; 0.25 lb/acre; read-out: percent preemergent control
Procedure, shortened: as §1

[15] = system: johnson grass; test: Preemergent control of plant species; assay type: in vivo, Sorghum halepense; details: Sorghum halepense, pre-emergence, 336 h; 0.25 lb/acre; read-out: percent preemergent control
Procedure, shortened: as §1

[16] = system: wild oats; test: Preemergent control of plant species; assay type: in vivo; details: Avena fatua, pre-emergence, 336 h; 0.25 lb/acre; read-out: percent preemergent control
Procedure, shortened: as §1

[17] = system: yellow foxtail; test: Preemergent control of plant species; assay type: in vivo, Setaria lutescens; details: Setaria, pre-emergence, 336 h; 0.25 lb/acre; read-out: percent preemergent control
Procedure, shortened: as §1

[18] = system: yellow nutsedge; test: Preemergent control of plant species; assay type: in vivo, Cyperus esculentus; details: Cyperus, pre-emergence, 336 h; 0.25 lb/acre; read-out: percent preemergent control
Procedure, shortened: as §1

[19] = system: rice; test: Control of aquatic plant species (paddy water); assay type: in vivo, Oryza sativa; details: Oryza sativa, 216 h, nine days, read-out: Percent control; for pest or weed control at 250 g/ha: 0.25 Kg/Ha
Procedure, shortened: (§2)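 First, young plants (1-2 inch stage) were set into about 2 inches of soil. Next, pots were flooded to about 1 inch depth. Then acetone concentrate was injected into the water at varying volumes to give the intended concentration. Finally, control was assessed after nine days.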

[20] = system: barnyardgrass; test: Control of aquatic plant species (paddy water); assay type: in vivo, Echinochloa crusgalli; details: Echinochloa crus-galli, 216 h, nine days, read-out: Percent control; for pest or weed control at 250 g/ha: 0.25 Kg/Ha
Method: In testing for such utility, the plant species to be tested were transplanted into 16 oz. containers into about 2 inches of soil when they were in the 1-2 inch stage and then flooded to a depth of about 1 inch. An acetone concentrate of the chemical to be tested was then injected into the paddy water, the volume injected being varied as desired to provide the desired concentration. Percent control was evaluated nine days after application.

[21] = system: sprangletop; test: Control of aquatic plant species (paddy water); assay type: in vivo, Leptochloa filiformis; details: Leptochloa filiformis, 216 h, nine days, read-out: Percent control; for pest or weed control at 250 g/ha: 0.25 Kg/Ha
Procedure, shortened: as §2

[22] = system: yellow nutsedge; test: Control of aquatic plant species (paddy water); assay type: in vivo, Cyperus esculentus; details: Cyperus, 216 h, nine days, read-out: Percent control; for pest or weed control at 250 g/ha: 0.25 Kg/Ha
Procedure, shortened: as §2

[23] = system: nitrification of ammonium nitrogen; test: Suppression of nitrification of ammonium nitrogen in soil; details: 27° C.
Procedure, shortened: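 Soil (20 g) moistened to its 1/3 bar tension value, mixed with test chemical and incubated sealed for two weeks at 27° C. Nitrate extracted with ammonium sulfate solution and measured by nitrate-specific ion electrode; value given as % NH4-N remaining.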

Row | Compound | plant injury at 280.212 g/ha [1] [%] | plant injury at 280.212 g/ha [2] [%] | plant injury at 280.212 g/ha [3] [%] | plant injury at 280.212 g/ha [4] [%] | pest or weed control at 280.212 g/ha [5] [%] | pest or weed control at 280.212 g/ha [6] [%] | pest or weed control at 280.212 g/ha [7] [%] | pest or weed control at 280.212 g/ha [8] [%] | plant injury at 280.212 g/ha [9] [%] | plant injury at 280.212 g/ha [10] [%] | plant injury at 280.212 g/ha [11] [%] | plant injury at 280.212 g/ha [12] [%] | pest or weed control at 280.212 g/ha [13] [%] | pest or weed control at 280.212 g/ha [14] [%] | pest or weed control at 280.212 g/ha [15] [%] | pest or weed control at 280.212 g/ha [16] [%] | pest or weed control at 280.212 g/ha [17] [%] | pest or weed control at 280.212 g/ha [18] [%] | pest or weed control at 250 g/ha [19] [%] | % NH4-N Remaining After 2 Weeks Incubation ([23]; 1 ppm) [%] | other results
1 | Cc1cc(C)n2nc(S(=O)(=O)Nc3c(Cl)cccc3Cl)nc2n1 [Compound 22, 5,7-Dimethyl-N-(2,6-dichlorophenyl)-1,2,4-triazolo[1,5-a]pyrimidine-2-sulfonamide] | 95 | 100 | 95 | 98 | 100 | 70 | 100 | 98 | 50 | 90 | 95 | 50 | 95 | 95 | 98 | 90 | 98 | 98 | 97 | 86 | pest or weed control at 250 g/ha [20]: 97%; pest or weed control at 250 g/ha [21]: 30%; pest or weed control at 250 g/ha [22]: 97%; % NH4-N Remaining After 2 Weeks Incubation ([23]; 0.06 ppm): 69%; % NH4-N Remaining After 2 Weeks Incubation ([23]; 0.125 ppm): 77%; % NH4-N Remaining After 2 Weeks Incubation ([23]; 0.25 ppm): 82%; % NH4-N Remaining After 2 Weeks Incubation ([23]; 0.5 ppm): 86%
2 | Cc1cc(C)n2nc(S(=O)(=O)Nc3c(Cl)cccc3Br)nc2n1 [Compound 39] | 95 | 95 | 95 | 97 | 100 | 90 | 100 | 95 | 95 | 97 | 95 | 0 | 97 | 70 | 95 | 0 | 97 | 100 | 75 | 91 | pest or weed control at 31 g/ha ([19]; 0.031 Kg/Ha): 0%; pest or weed control at 31 g/ha ([20]; 0.031 Kg/Ha): 20%; pest or weed control at 250 g/ha [20]: 99%; pest or weed control at 31 g/ha ([21]; 0.031 Kg/Ha): 0%; pest or weed control at 250 g/ha [21]: 75%; pest or weed control at 31 g/ha ([22]; 0.031 Kg/Ha): 85%; pest or weed control at 250 g/ha [22]: 99%; % NH4-N Remaining After 2 Weeks Incubation ([23]; 0.01 ppm): 49%; % NH4-N Remaining After 2 Weeks Incubation ([23]; 0.1 ppm): 78%; % NH4-N Remaining After 2 Weeks Incubation ([23]; 10 ppm): 100%
3 | Cc1cc(C)n2nc(S(=O)(=O)Nc3ccccc3Br)nc2n1 [Compound 41] | 40 | 80 | 25 | 80 | 0 | 10 | 0 | 10 | 0 | 0 | 20 | 0 | 80 | 10 | 35 | 0 | 30 | 70 | – | 87 | pest or weed control at 1000 g/ha ([19]; 1.0 Kg/Ha): 97%; pest or weed control at 1000 g/ha ([20]; 1.0 Kg/Ha): 99%; pest or weed control at 1000 g/ha ([21]; 1.0 Kg/Ha): 95%; pest or weed control at 1000 g/ha ([22]; 1.0 Kg/Ha): 80%; % NH4-N Remaining After 2 Weeks Incubation ([23]; 0.06 ppm): 23%; % NH4-N Remaining After 2 Weeks Incubation ([23]; 0.1 ppm): 54%; % NH4-N Remaining After 2 Weeks Incubation ([23]; 10 ppm): 100%
